According to the CheMixHub viscosity set:
“And” between values parts separate entries of the source, which are not always exact repeats. Equal values may be shown once. ± gives the uncertainty stated by the source. Blank lines part the entries; values can stand above or below the compound they belong to.

viscosity (298.16 K, 101 kPa): 2.18 ± 0.019 mPa·s
Structure (SMILES): CC(=O)N(C(C)C)C(C)C

Structure (SMILES): CCCCCCC(=O)O
viscosity (298.15 K, 101 kPa): 3.784 ± 0.098 mPa·s

Structure (SMILES): CCCCCCCCCCCCBr
viscosity (298.08 K, 101 kPa): 3.373 ± 0.086 mPa·s
viscosity (303.1 K, 101 kPa): 3.024 ± 0.077 mPa·s
viscosity (308.11 K, 101 kPa): 2.689 ± 0.069 mPa·s
viscosity (313.11 K, 101 kPa): 2.437 ± 0.062 mPa·s

viscosity (313.15 K, 101 kPa): 4062 ± 1600 mPa·s
viscosity (323.15 K, 101 kPa): 2043 ± 660 mPa·s
Structure (SMILES): CCCCCCCCn1cc[n+](C)c1.[Cl-]

viscosity (303.15 K, 101 kPa): 153 ± 3 mPa·s and 153 ± 3.2 mPa·s
viscosity (308.15 K, 101 kPa): 138 ± 3 mPa·s and 138 ± 2.9 mPa·s
viscosity (313.15 K, 101 kPa): 108 ± 2 mPa·s
Structure (SMILES): CC[NH+](CC)CC.O=S(=O)([O-])O

Structure (SMILES): COC(=O)CC(C)=O
viscosity (298.15 K, 101.3 kPa): 1.566 ± 0.038 mPa·s and 1.564 ± 0.038 mPa·s and 1.564 ± 0.021 mPa·s
viscosity (303.15 K, 101.3 kPa): 1.422 ± 0.035 mPa·s and 1.421 ± 0.035 mPa·s and 1.421 ± 0.019 mPa·s
viscosity (308.15 K, 101.3 kPa): 1.298 ± 0.032 mPa·s and 1.298 ± 0.018 mPa·s

Structure (SMILES): COc1ccc(C=O)cc1
viscosity (303.15 K, 101 kPa): 3.251 ± 0.75 mPa·s and 3.578 ± 0.36 mPa·s and 3.251 ± 0.024 mPa·s
viscosity (308.15 K, 101 kPa): 3.131 ± 0.72 mPa·s and 3.035 ± 0.3 mPa·s and 3.131 ± 0.023 mPa·s
viscosity (313.15 K, 101 kPa): 2.961 ± 0.68 mPa·s and 2.649 ± 0.27 mPa·s and 2.961 ± 0.022 mPa·s
viscosity (318.15 K, 101 kPa): 2.682 ± 0.62 mPa·s and 2.34 ± 0.23 mPa·s and 2.682 ± 0.02 mPa·s

viscosity (298.15 K, 101.33 kPa): 1495 ± 180 mPa·s
viscosity (303.15 K, 101.33 kPa): 1021 ± 110 mPa·s
viscosity (308.15 K, 101.33 kPa): 716.3 ± 73 mPa·s
viscosity (313.15 K, 101.33 kPa): 513.1 ± 48 mPa·s
viscosity (318.15 K, 101.33 kPa): 377.6 ± 33 mPa·s
viscosity (323.15 K, 101.33 kPa): 282.4 ± 23 mPa·s
Structure (SMILES): CS(=O)(=O)[O-].C[N+](C)(CCO)CCO

Structure (SMILES): Clc1cccc(Cl)c1
viscosity (298.15 K, 100 kPa): 1.017 ± 0.022 mPa·s
viscosity (303.15 K, 100 kPa): 0.945 ± 0.009 mPa·s
viscosity (303.15 K, 101 kPa): 0.949 ± 0.012 mPa·s and 0.945 ± 0.02 mPa·s
viscosity (308.15 K, 100 kPa): 0.895 ± 0.008 mPa·s and 0.906 ± 0.019 mPa·s
viscosity (308.15 K, 101 kPa): 0.895 ± 0.012 mPa·s and 0.895 ± 0.019 mPa·s
viscosity (313.15 K, 100 kPa): 0.849 ± 0.008 mPa·s
viscosity (313.15 K, 101 kPa): 0.849 ± 0.018 mPa·s
viscosity (318.15 K, 100 kPa): 0.799 ± 0.008 mPa·s and 0.809 ± 0.017 mPa·s
viscosity (318.15 K, 101 kPa): 0.799 ± 0.017 mPa·s
